# From US20240299378A1, “EMULSION FOR USE IN THE TREATMENT OF ROSACEA” (EXINOV, priority 2021, published 2024)
# Test system: cell proliferation in the local lymph nodes
# Test: mouse Local Lymph Node Assay (LLNA), 3HTdR incorporation
# Details: topical on ears days 1-3; Em-A 100% (w/v) in AOO; HCA 25% (w/v) in AOO
# Description: Preliminary tests: Based on the results of the Preliminary Compatibility Test, the tested emulsions characteristics (e.g., when the emulsion is a dense cream), its use and following the Organisation for Economic Co-operation and Development (OECD) Guidelines, the best vehicle for the tested emulsions was considered as AOO (acetone:olive oil 4:1 (v/v) mixture). The tested emulsions at 100% (w/v) were suitable for the test using AOO as vehicle. […] Based on the observations recorded in this test, the 100% (w/v) in AOO dose was selected as top dose for the main test. […] Tested emulsions were applied on the dorsal surface of ears of experimental animals (25 μL/ear using positive displacement pipette) for three consecutive days (days 1, 2 and 3). There was no treatment on days 4, 5 and 6. The cell proliferation in the local lymph nodes was assessed by measuring the incorporation of tritiated methyl thymidine (3HTdR) and the values obtained were used to calculate stimulation indices (SI) in comparison with the control group.
compound,measurement,value
"CCCCCCC(C=O)=Cc1ccccc1 [HCA, α-hexylcinnamaldehyde]",stimulation index (SI),12.7
